In patent US8932853B2, “Method for manufacturing pancreatic-hormone-producing cells” (Takeda Pharmaceutical Company Limited, priority 2009, dated 2015):
Entries after “also recorded” stand apart in the source; their conditions may differ.

Columns and labels:
Format in all cases: cell-based
[1] = system: insulin-producing cells differentiated from human iPS cells; assay: C-peptide secretion of differentiated insulin-producing cells in response to stimulation (Human C-peptide ELISA); conditions: 1 hr at 37° C. in buffer containing 2.5 mM glucose; (−)-Bay K8644 2 μM, tolbutamide 100 μM, carbachol 250 μM, IBMX 0.5 mM, KCl 30 mM; relative to 2.5 mM glucose
Procedure: The medium was changed once on day 7 of induction. […] The medium was changed every 3-4 days. After the culture, the cells were washed with a buffer containing 2.5 mM glucose (NaCl (116 mM), KCl (4.7 mM), KH2PO4 (1.18 mM), MgSO4 (1.18 mM), NaHCO3 (25 mM), CaCl2 (2.52 mM), HEPES (24 mM), 0.1% BSA), a buffer containing 2.5 mM glucose was added and the mixture was cultured at 37° C. for 2 hr. The supernatant was completely removed, and a buffer containing 2.5 mM glucose, a buffer containing 22.5 mM glucose, a buffer containing 2.5 mM glucose and 2 μM (−)-Bay K8644, a buffer containing 2.5 mM glucose and 100 μM tolbutamide, a buffer containing 2.5 mM glucose and 250 μM carbachol, a buffer containing 2.5 mM glucose and 0.5 mM IBMX, and a buffer containing 2.5 mM glucose and 30 mM KCl were respectively added. After culture at 37° C. for 1 hr, the culture supernatant was recovered, and the C-peptide contained in the culture supernatant was measured using Human C-peptide ELISA kit (Mercodia AB).

[2] = system: human iPS cells (253G1 strain); assay: quantitative RT-PCR of BRACHYURY and SOX17 during induction of human iPS cells into endodermal cells, steps (1)-(2); conditions: added with activin A (100 ng/ml) only the first day, CHIR99021 3 μM, Wnt3a 25 ng/ml, relative to GAPDH
Description: As a first stage for induction of differentiation of human iPS cells (iPS cells obtained by introducing Oct3/4 gene, Klf4 gene and Sox2 gene: see Nat Biotechnol 2008; 26: 101-106) into pancreas cells (particularly pancreatic hormone-producing cells), differentiation of human iPS cells was induced into endodermal cells by using a 96 well plate.
As the human iPS cells, 253G1 strain (iPS cell line produced by expressing OCT4/SOX2/KLF4 with retrovirus; Nature Biotechnology 26, 101-106) was used. Maintenance culture of the iPS cells in an undifferentiated state was performed using mitomycin-treated mouse fibroblast (MEFs) seeded on a gelatin-coated plate as feeder cells, and a medium for primate ES cells (ReproCELL Incorporated) added with 4 ng/ml bFGF (PeproTech EC) and 0.5× Penicillin-streptomycin (SIGMA) as a medium at 37° C. under 5% CO2. The medium was changed every day, the cell mass was detached every 4-5 days using a cell detachment solution for primate ES cell (ReproCELL Incorporated), and passaged by seeding on new feeder cells.
As a preculture for differentiation induction into endodermal cells, undifferentiated iPS cells were seeded in a 96 well plate. First, iPS cells maintained in a cell mass was treated with 0.25% trypsin-1 mM EDTA solution (GIBCO) and dissociated until they became single cells. Then, iPS cells dispersed in a medium were seeded in a 96 well plate at a density of 2×10^4 cells per well and cultured at 37° C. under 5% CO2 for 1 day. The 96 well plate used had been gelatin-coated, seeded with 5×10^3 MEFs and cultured at 37° C. under 5% CO2 for 5 hr. In addition, as a culture medium for seeding, a medium for primate ES cells added with 10 μM Y-27632 (Wako Pure Chemical Industries, Ltd.) was used. One day after seeding, the medium was changed to a medium for primate ES cells without Y-27632, and the cells were further cultured for 2 days until they became confluent.
Differentiation of iPS cells into endodermal cells was induced according to the following method. First, the confluent cells were washed with RPMI medium (GIBCO), RPMI medium containing various differentiation-inducing factors and 2% fetal bovine serum (FBS) was added, and the mixture was cultured for 1 day. […]
To examine variation in the expression of endoderm differentiation marker when cultured under each condition, differentiation-induced cells were recovered over time, and the total RNA fractions were purified using RNeasy96 (Qiagen). Using a PrimeScript RT reagent kit (Takara Bio Inc.), cDNA was synthesized, and quantitative RT-PCR was performed, whereby the gene expression level of BRACHYURY, which is a primitive streak marker, and SOX17, which is an endodermal marker, was measured.

[3] = system: human iPS cells (253G1 strain); assay: immunofluorescent staining with anti-SOX17 antibody on day 3 of differentiation induction
Procedure: To examine expression of SOX17 protein after culture for 3 days, immunofluorescent staining using an anti-SOX17 antibody was performed. After culture up to day 3 in the same manner as in FIG. 1, the cells were fixed with 2% para-formaldehyde (PFA) for 10 min and further for 20 min with 4% PFA at room temperature.
Whether even use of a GSK3 inhibitor other than CHIR99021 in step (1) enables differentiation induction into endodermal cells was examined. The differentiation of human iPS cells into endodermal cells was induced according to the following method. […] Thereafter, the cells were washed with RPMI medium (GIBCO), and cultured for 1 day in RPMI medium containing various GSK3 inhibitors, activin A (100 ng/ml) and 2% fetal bovine serum (FBS). […] As a control, the cells were treated with a medium added only with activin A and free of GSK3 inhibitor. After culture for 1 day, the cells were washed with RPMI medium, and further cultured for 2 days in RPMI medium added with 2% FBS and 100 ng/ml activin A.
To examine expression of SOX17 protein on day 3 of differentiation induction, immunofluorescent staining using an anti-SOX17 antibody was performed. 4% PFA was added to the cells on day 3 of culture under each condition, the mixture was incubated at room temperature for 30 min to fix the cells.

[4] = system: endodermal cells induced from human iPS cells; conditions: added simultaneously with dorsomorphin (1 μM) and retinoic acid (2 μM) day 3 to day 10; SB431542 5 μM, ALK5 inhibitor II 2 μM, A-83-01 0.2 μM, TGFβRI kinase inhibitor VIII 0.2 μM; vs dorsomorphin and retinoic acid alone
Procedure: The dorsomorphin is an inhibitor of AMP-activated protein kinase (AMPK), and an inhibitor of ALK2, ALK3 and ALK6 from among activin receptor-like kinases (ALK). In addition, SB431542 is an inhibitor of ALK4, ALK5 and ALK7 from among ALKs.
As a control, the medium was changed to one added with dorsomorphin and retinoic acid alone (Ctrl). […] After the culture, the expression level of NGN3, which is progenitor cells of pancreatic hormone-producing cells marker, was measured in the same manner as in Example 1.

[5] = system: progenitor cells of pancreatic hormone-producing cells induced from human iPS cells; assay: immunofluorescent staining with anti-insulin antibody after step (4); conditions: each added alone in step (4), day 10 to day 21; forskolin 10 μM, dibutyl cAMP 500 μM, IBMX 200 μM, ALK5 inhibitor II 5 μM, A-83-01 0.5 μM, SB431542 10 μM, TGFβRI kinase inhibitor VIII 2 μM, dexamethasone 10 μM, hydrocortisone 5 μM, betamethasone 2 μM, beclomethasone 1 μM

Molecule | C-peptide secretion level [1] | positive rate of insulin-expressing cells [5] | further results
COC(=O)C1=C(C)NC(C)=C([N+](=O)[O-])C1c1ccccc1C(F)(F)F (single isomer, unassigned; (-)) [(−)-Bay K8644] | increased | – | –
Cc1c[nH]c(-c2cnc(NCCNc3ccc(C#N)cn3)nc2-c2ccc(Cl)cc2Cl)n1 [CHIR99021, 6-[[2-[[4-(2,4-dichlorophenyl)-5-(4-methyl-1H-imidazol-2-yl)-2-pyrimidinyl]amino]ethyl]amino]nicotinonitrile] | – | – | expression level of SOX17 (endodermal marker) ([2]; then activin A alone 2 days, days 2-3): increased markedly; also recorded: high value; expression level of BRACHYURY (primitive streak marker) ([2]; day 1 of differentiation induction): transiently increased; also recorded: highest value; ratio of cells expressing SOX17 protein ([3]; added with activin A (100 ng/ml) for 1 day, then activin A alone 2 days, CHIR99021 3 μM, Wnt3a 25 ng/ml, SB415286 3 μM, SB216763 20 μM): highest; also recorded: increased
Cc1cccc(-c2nn(C(=S)Nc3ccccc3)cc2-c2ccnc3ccccc23)n1 [Example A-83-01, 3-[6-methyl-2-pyridinyl]-N-phenyl-4-[4-quinolinyl]-1H-pyrazole-1-carbothioamide] | – | remarkably increased; also recorded: induced differentiation into insulin-positive cells with high efficiency | expression level of NGN3 [4]: increased remarkably
CC(C)Cn1c(=O)n(C)c(=O)c2[nH]cnc21 [IBMX, 3-isobutyl-1-methylxanthine] | increased | remarkably increased; also recorded: induced differentiation into insulin-positive cells with high efficiency | –
[Cl-].[K+] [KCl] | increased | – | –
NC(=O)c1ccc(-c2nc(-c3ccc4c(c3)OCO4)c(-c3ccccn3)[nH]2)cc1 [SB431542, 4-[4-(1,3-benzodioxol-5-yl)-5-(2-pyridinyl)-1H-imidazol-2-yl]-benzamide] | – | remarkably increased; also recorded: induced differentiation into insulin-positive cells with high efficiency | expression level of NGN3 [4]: increased remarkably
Cc1cccc(-c2[nH]c(C(C)(C)C)nc2-c2ccc3nccnc3c2)n1 [TGFβRI kinase inhibitor VIII, 6-[2-tert-butyl-5-[6-methyl-pyridin-2-yl]-1H-imidazol-4-yl]-quinoxaline] | – | remarkably increased; also recorded: induced differentiation into insulin-positive cells with high efficiency | expression level of NGN3 [4]: increased remarkably
C[C@H]1C[C@H]2[C@@H]3CCC4=CC(=O)C=C[C@]4(C)[C@@]3(Cl)[C@@H](O)C[C@]2(C)[C@@]1(O)C(=O)CO [beclomethasone] | – | remarkably increased; also recorded: induced differentiation into insulin-positive cells with high efficiency | –
C[N+](C)(C)CCOC(N)=O [carbachol] | increased | – | –
CCCC(=O)Nc1ncnc2c1ncn2[C@@H]1O[C@@H]2COP(=O)(O)O[C@H]2[C@H]1OC(=O)CCC [dibutyl cAMP] | – | remarkably increased; also recorded: induced differentiation into insulin-positive cells with high efficiency | –
C[C@]12CCC(=O)C=C1CC[C@@H]1[C@@H]2[C@@H](O)C[C@@]2(C)[C@H]1CC[C@]2(O)C(=O)CO [hydrocortisone] | – | remarkably increased; also recorded: induced differentiation into insulin-positive cells with high efficiency | –
CCCCNC(=O)NS(=O)(=O)c1ccc(C)cc1 [tolbutamide] | increased | – | –
activin A: 24 kD peptidic cell proliferation and differentiation factor belonging to the TGFβ family; activator of activin receptor-like kinase-4,7 (protein, UniProt P08476 311-426, looked up, Inhibin beta A chain) Inhibin beta A chain: GLECDGKVNICCKKQFFVSFKDIGWNDWIIAPSGYHANYCEGECPSHIAGTSGSSLSFHSTVINHYRMRGHSPFANLKSCCVPTKLRPMSMLYYDDGQNIIKKDIQNMIVEECGCS | – | – | ratio of cells expressing SOX17 protein ([3]; activin A (100 ng/ml) alone for 3 days (Comparative Example 1)): a part of the cells also expressed SOX17 protein
